Laboratory results reported in patent US6309842A, “Use of modified tethers in screening compound libraries” (Glaxo Wellcome Inc., priority 1997, dated 2001).

Columns and labels:
[1] = target: RARa (Retinoic Acid Receptor alpha) (Homo sapiens, UniProt P10276); assay: Gal4 DNA binding domain/RARa fusion with 5x UAS-tk-SEAP reporter in CHOK1 cells
Description: The Gal4 DNA response element (5× UAS) was cloned upstream of the SEAP reporter gene, driven by the tk promoter, into the pGL3 vector (Promega). The pSG5 vector (Stratagene) was used to clone a Gal4 DNA Binding Domain/RARa (Retinoic Acid Receptor alpha)(carboxy end) fusion. These two plasmids were simultaneously transiently lipofected into CHOK1 cells using with Lipofectamine (Gibco BRL). The lipofected cells were seeded into individual wells on 2, 96-well culture plates (Falcon). The cells were grown for 16 hr in 100 μl/well Optimem Media (Gibco) with 10% dilapidated serum (Sigma) that was heat treated at 65° C. for 45 minutes before adding to the media. Serum was heated to inactivate endogenous phosphatases. After 16 hr growth at 37° C., there were 10^4 cells/well. Cells in one plate were stimulated with 1 μM retinoic acid; the cells in the other plate were not stimulated. Media was the same. The plates were incubated in the 37° C. cell culture incubator for another 24 hr. The supernatants were removed from the individual wells on the plates. All supernatants from stimulated cells were pooled; all supernatants from nonstimulated cells were pooled. Both were stored at 4° C. overnight. The cells were discarded.
The next day, 100 μl of each supernatant was tested for SEAP activity using the Tropix Chemiluminescent Assay Kit, as before.

[2] = target: T1, IL-1R (Homo sapiens, UniProt P14778); assay: IL-1R binding assay
T1 sequence (P14778 18-569): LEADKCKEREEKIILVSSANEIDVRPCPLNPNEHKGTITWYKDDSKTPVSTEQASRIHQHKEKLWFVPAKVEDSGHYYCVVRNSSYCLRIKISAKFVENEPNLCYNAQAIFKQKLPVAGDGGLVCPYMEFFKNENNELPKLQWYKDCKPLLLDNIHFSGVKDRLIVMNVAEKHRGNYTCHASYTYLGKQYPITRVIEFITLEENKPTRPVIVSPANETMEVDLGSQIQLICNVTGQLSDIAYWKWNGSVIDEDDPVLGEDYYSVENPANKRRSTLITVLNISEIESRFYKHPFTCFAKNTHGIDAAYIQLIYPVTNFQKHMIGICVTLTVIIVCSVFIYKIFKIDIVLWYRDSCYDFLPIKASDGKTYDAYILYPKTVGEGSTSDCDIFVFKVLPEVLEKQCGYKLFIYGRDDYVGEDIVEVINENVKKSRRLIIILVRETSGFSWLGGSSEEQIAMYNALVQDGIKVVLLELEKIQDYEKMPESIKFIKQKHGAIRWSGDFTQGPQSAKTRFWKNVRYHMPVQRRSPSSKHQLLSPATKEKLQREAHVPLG

[3] = test system: IL-1RFc; assay: Competition assay, IL-1RFc held on reservoir beads, released AP activity; assay type: binding; conditions: beads coated with streptavidin or biotin-MBP-AF12413
Description: This example uses two classes of beads referred to as reservoir beads and library beads. The reservoir beads have receptor immobilized via a known ligand. The library beads have compounds to be screened, identifier tags and tethers as before. A compound released from a library bead competes a labelled receptor from a reservoir bead, and the labelled receptor, directly or indirectly, modifies a tether on proximate library beads. Both sets of beads can be added to nanowells for performing the assay.
500 μl beads (Polysciences, Inc., 2.5% Solids-latex, 2 μm) were washed twice with PBS, resuspended in 1 ml of PBS and split into 5 tubes (a, b, c, d, e). 300 μl 1 mg/ml coating protein was added per tube and incubated at 37° C. for 3 hr on shaker. The beads were washed with PBT. Coating proteins were added in the five tubes as follows: a. BSA-Biotin (Sigma), b. BSA (LC)-Biotin (Sigma), c. Hemocyanin-Biotin (Sigma), d. Streptavidin (Gibco BRL), e. Biotin-MBP-AF12413 [[…](biotin)[…] (SEQ ID NO:30)-maltose binding protein-[…] (SEQ ID NO:31)].
The beads were blocked with 1 ml PBT and incubated at room temperature overnight on shaker and washed with PBT. 300 μl of 1 mg/ml streptavidin and 1.2 ml PBT were added to a, b, c, tubes, which were incubated at; 37° C. for 1 hour on shaker. The tubes were washed twice in PBS. […]

Sequence of RARa (Retinoic Acid Receptor alpha) (P10276 whole entry, the tested form may be a part): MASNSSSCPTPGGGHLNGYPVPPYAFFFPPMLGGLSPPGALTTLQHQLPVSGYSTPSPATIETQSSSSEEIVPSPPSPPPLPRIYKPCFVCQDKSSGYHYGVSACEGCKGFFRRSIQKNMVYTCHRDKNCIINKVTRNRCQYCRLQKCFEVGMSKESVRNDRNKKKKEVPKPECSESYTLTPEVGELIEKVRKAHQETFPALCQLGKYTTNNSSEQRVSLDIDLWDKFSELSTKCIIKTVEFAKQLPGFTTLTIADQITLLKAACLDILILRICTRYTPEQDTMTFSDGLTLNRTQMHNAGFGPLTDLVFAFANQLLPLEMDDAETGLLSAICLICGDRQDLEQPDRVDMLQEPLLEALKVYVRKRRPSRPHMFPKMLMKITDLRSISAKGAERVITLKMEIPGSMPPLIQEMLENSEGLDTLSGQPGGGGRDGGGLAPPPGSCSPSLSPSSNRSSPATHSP

| Molecule | SEAP produced in supernatant ([1]; 1 μM retinoic acid, 24 hr stimulation) | fold induction at 1 µM ([1]; CHO-K1, 24 h, read-out: Increase in SEAP production upon stimulation) | IC50 [2] [nM] | Signal of released AP activity [3] |
| --- | --- | --- | --- | --- |
| CC1=C(/C=C/C(C)=C/C=C/C(C)=C/C(=O)O)C(C)(C)CCC1 [retinoic acid] | about 0.52 units of SEAP/ml | 126 | – | – |
| NH2-YEWTPGYYQJY-NH2 [AF12304] | – | – | ~2 | only background signals |
